# pEC50, pIC50: −log10 of the molar value. Where two headings read alike, the source gives them in different places.
# Assays:
# [1] = biological target: T1, hERG (Homo sapiens, UniProt Q12809); assay: Safety47 Ion Channel hERG; type: cell-based; settings: Blocker; for pIC50: read-out: RC50 (IC50); for Emax: human, read-out: Max Response
# T1 construct: purchased Eurofins Panlab (Safety47 Safety Scan, contract panel)
# [2] = biological target: T2, KvLQT1/minK (Homo sapiens, UniProt P51787); assay: Safety47 Ion Channel KvLQT1/minK; type: cell-based; settings: for Emax: read-out: Max Response; for pIC50: read-out: RC50 (IC50); for pEC50: read-out: RC50 (EC50)
# T2 construct: purchased Eurofins Panlab (Safety47 Safety Scan, contract panel)
# T2 sequence (P51787 whole entry): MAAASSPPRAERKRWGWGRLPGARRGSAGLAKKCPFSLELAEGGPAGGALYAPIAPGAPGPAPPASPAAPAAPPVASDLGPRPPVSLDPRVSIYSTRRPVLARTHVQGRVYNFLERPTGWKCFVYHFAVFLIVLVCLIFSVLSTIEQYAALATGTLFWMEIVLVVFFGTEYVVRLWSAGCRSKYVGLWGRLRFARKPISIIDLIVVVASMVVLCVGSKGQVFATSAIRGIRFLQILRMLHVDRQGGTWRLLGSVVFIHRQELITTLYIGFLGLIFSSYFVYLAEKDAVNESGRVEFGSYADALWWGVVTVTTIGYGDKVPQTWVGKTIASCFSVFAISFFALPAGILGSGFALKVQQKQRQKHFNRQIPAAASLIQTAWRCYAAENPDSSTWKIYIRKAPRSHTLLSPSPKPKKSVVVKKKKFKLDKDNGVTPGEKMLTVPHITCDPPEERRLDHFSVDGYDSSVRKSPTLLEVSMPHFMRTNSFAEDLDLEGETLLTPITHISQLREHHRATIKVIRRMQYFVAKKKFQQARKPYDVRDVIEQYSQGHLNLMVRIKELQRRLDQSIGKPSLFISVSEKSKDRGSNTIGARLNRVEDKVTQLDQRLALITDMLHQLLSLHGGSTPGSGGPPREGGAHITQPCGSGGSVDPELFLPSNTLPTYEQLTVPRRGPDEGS
# [3] = biological target: T3, OPRM1 (Homo sapiens, UniProt P35372); assay: Safety47 cAMP OPRM1; type: cell-based; settings: for Emax: OPRM1, cAMP, read-out: Max Response; for pEC50: read-out: RC50 (EC50); for pIC50: read-out: RC50 (IC50)
# T3 construct: purchased Eurofins Panlab (Safety47 Safety Scan, contract panel)
# T3 sequence (P35372 whole entry, species assumed): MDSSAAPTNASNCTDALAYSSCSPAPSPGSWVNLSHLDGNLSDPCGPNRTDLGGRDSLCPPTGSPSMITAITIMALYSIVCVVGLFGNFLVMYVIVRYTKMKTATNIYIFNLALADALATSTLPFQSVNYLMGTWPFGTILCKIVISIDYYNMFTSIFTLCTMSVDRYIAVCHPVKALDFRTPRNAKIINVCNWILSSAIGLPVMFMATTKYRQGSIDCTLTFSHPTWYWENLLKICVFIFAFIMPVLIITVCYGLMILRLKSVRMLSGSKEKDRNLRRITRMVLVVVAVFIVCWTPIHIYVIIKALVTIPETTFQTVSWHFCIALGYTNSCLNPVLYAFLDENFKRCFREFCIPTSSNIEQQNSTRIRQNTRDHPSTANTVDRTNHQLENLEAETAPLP
# [4] = biological target: T4, NMDAR (1A/2B) (Homo sapiens, UniProt Q05586+Q13224); assay: Safety47 Ion Channel NMDAR (1A/2B); type: cell-based; settings: for Emax: read-out: Max Response; for pIC50: read-out: RC50 (IC50); for pEC50: read-out: RC50 (EC50)
# T4 construct: purchased Eurofins Panlab (Safety47 Safety Scan, contract panel)
# [5] = biological target: T5, COX2 (Homo sapiens, UniProt P35354); assay: Safety47 Enzymatic COX2; type: biochemical; settings: Inhibitor; for Emax: read-out: Max Response; for pIC50: read-out: RC50 (IC50)
# T5 construct: purchased Eurofins Panlab (Safety47 Safety Scan, contract panel)
# T5 sequence (P35354 18-604): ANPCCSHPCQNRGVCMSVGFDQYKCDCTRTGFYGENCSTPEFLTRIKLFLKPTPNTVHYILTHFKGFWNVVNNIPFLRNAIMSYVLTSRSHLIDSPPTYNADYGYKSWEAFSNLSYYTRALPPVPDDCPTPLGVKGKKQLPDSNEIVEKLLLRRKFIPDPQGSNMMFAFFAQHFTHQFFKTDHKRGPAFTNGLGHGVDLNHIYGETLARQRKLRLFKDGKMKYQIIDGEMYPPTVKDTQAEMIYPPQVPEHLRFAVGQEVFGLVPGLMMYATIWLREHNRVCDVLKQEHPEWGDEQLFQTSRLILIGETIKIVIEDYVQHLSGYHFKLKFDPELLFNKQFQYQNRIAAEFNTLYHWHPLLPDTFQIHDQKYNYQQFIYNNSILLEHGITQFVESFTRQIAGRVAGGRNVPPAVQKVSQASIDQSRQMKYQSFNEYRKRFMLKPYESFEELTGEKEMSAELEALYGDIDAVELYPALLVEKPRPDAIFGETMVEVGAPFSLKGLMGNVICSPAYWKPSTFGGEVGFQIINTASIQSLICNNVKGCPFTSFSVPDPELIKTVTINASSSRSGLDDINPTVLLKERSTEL
# [6] = biological target: T6, OPRK1 (Homo sapiens, UniProt P41145); assay: Safety47 cAMP OPRK1; type: cell-based; settings: for Emax: read-out: Max Response; for pEC50: read-out: RC50 (EC50); for pIC50: read-out: RC50 (IC50)
# T6 construct: purchased Eurofins Panlab (Safety47 Safety Scan, contract panel)
# T6 sequence (P41145 whole entry, species assumed): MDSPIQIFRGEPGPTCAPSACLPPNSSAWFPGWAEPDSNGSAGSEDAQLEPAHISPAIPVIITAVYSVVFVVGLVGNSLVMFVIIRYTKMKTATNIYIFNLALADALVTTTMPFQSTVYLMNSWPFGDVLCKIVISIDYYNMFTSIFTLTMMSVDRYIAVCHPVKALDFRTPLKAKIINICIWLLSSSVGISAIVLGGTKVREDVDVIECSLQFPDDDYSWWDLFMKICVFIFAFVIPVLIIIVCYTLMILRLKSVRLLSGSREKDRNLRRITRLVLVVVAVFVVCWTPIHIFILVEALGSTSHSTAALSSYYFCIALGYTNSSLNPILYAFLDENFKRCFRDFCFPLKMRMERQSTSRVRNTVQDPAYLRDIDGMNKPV
# [7] = biological target: T7, DRD1 (Homo sapiens, UniProt P21728); assay: Safety47 cAMP DRD1; type: cell-based; settings: for Emax: read-out: Max Response; for pEC50: read-out: RC50 (EC50); for pIC50: read-out: RC50 (IC50)
# T7 construct: purchased Eurofins Panlab Safety47 Safety Scan
# T7 sequence (P21728 whole entry): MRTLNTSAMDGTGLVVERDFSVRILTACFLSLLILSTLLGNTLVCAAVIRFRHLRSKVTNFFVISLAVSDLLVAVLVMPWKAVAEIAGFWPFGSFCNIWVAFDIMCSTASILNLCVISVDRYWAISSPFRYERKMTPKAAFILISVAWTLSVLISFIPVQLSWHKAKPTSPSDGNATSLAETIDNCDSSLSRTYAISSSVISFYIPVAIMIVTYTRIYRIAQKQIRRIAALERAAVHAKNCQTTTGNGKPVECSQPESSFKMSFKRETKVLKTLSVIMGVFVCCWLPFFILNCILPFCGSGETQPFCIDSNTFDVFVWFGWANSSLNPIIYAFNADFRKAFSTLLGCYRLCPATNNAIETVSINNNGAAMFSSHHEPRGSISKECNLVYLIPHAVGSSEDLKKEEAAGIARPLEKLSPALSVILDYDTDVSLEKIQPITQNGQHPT
# [8] = biological target: T8, EDNRA (Homo sapiens, UniProt P25101); assay: Safety47 Calcium Flux EDNRA; type: cell-based; settings: for Emax: read-out: Max Response; for pEC50: read-out: RC50 (EC50); for pIC50: read-out: RC50 (IC50)
# T8 construct: purchased Eurofins Panlab Safety47 Safety Scan
# T8 sequence (P25101 21-427): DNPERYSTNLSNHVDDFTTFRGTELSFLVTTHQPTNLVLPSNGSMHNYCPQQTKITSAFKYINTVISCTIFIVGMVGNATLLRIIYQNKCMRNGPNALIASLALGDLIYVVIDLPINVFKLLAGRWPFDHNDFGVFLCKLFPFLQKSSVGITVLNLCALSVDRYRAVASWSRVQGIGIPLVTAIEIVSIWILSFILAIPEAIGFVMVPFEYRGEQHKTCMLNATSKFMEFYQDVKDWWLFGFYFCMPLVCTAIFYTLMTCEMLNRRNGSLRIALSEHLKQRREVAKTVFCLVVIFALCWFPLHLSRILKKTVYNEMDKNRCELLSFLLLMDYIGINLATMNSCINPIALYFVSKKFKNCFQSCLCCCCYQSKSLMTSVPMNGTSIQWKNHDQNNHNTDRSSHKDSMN
# [9] = biological target: T9, nAChR(a4/b2) (Homo sapiens, UniProt P17787+P43681); assay: Safety47 Ion Channel nAChR(a4/b2); type: cell-based; settings: for Emax: read-out: Max Response; for pIC50: read-out: RC50 (IC50); for pEC50: read-out: RC50 (EC50)
# T9 construct: purchased Eurofins Panlab (Safety47 Safety Scan, contract panel)
# T9 sequence (P43681 29-627 limits assumed): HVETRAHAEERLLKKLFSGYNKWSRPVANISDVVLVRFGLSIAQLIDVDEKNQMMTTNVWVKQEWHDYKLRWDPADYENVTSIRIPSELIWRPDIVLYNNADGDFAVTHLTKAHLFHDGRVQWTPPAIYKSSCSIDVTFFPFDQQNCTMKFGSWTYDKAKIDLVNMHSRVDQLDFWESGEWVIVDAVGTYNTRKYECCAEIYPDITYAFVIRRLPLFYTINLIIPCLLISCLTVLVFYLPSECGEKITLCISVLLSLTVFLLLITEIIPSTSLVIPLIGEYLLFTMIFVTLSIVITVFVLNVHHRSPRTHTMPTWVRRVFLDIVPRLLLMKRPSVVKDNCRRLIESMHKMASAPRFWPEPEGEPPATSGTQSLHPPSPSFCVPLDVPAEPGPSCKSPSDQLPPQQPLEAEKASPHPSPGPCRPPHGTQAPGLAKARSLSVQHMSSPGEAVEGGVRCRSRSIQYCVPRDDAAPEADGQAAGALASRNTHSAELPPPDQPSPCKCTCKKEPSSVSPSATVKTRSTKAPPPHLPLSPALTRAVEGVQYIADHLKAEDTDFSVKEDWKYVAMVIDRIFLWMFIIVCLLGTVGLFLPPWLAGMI
# T9 sequence (P17787 26-502): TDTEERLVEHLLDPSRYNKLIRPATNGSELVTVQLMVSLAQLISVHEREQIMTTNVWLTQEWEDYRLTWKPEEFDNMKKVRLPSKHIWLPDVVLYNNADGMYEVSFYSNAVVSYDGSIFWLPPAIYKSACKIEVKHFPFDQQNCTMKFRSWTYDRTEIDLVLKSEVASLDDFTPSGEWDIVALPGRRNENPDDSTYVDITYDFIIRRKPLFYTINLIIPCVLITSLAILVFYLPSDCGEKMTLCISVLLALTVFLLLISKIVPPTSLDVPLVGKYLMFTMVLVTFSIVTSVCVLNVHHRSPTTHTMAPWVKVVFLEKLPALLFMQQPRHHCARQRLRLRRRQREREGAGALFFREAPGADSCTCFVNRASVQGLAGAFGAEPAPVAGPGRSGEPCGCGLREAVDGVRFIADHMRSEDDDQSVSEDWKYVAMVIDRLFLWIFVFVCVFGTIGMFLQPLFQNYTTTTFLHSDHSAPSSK
# [10] = biological target: T10, HTR3A (Homo sapiens, UniProt P46098); assay: Safety47 Ion Channel HTR3A; type: cell-based; settings: for Emax: read-out: Max Response; for pIC50: read-out: RC50 (IC50); for pEC50: read-out: RC50 (EC50)
# T10 construct: purchased Eurofins Panlab (Safety47 Safety Scan, contract panel)
# T10 sequence (P46098 24-478): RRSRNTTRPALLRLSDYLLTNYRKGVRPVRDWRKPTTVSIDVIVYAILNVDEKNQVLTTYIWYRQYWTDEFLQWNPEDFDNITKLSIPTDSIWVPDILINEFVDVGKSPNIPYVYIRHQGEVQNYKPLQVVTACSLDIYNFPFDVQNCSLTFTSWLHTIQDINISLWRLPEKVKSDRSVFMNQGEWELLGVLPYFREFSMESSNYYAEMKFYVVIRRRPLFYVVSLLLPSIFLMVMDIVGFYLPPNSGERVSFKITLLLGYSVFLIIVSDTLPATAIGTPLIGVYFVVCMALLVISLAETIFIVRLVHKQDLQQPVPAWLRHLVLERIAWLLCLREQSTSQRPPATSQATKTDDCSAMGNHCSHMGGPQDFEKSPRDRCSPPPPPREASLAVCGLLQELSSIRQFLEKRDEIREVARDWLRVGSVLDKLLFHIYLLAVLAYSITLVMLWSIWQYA
# [11] = biological target: T11, HTR2B (Homo sapiens, UniProt P41595); assay: Safety47 Calcium Flux HTR2B; type: cell-based; settings: for Emax: read-out: Max Response; for pEC50: read-out: RC50 (EC50); for pIC50: read-out: RC50 (IC50)
# T11 construct: purchased Eurofins Panlab Safety47 Safety Scan
# T11 sequence (P41595 whole entry): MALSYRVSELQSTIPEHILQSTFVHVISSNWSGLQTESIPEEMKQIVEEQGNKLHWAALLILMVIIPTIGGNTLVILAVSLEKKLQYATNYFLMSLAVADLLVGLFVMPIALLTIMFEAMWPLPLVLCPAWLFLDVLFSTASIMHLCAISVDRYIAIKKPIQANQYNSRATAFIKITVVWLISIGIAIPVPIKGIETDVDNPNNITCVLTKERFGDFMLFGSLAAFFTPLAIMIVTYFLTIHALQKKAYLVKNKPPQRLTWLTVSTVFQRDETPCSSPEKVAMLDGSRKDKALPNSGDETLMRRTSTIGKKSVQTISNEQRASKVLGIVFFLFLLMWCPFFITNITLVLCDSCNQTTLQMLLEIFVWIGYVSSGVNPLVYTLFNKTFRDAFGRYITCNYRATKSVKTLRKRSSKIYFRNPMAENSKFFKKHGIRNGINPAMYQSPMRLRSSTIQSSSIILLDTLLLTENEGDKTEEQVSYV
# T1 sequence (Q12809 whole entry): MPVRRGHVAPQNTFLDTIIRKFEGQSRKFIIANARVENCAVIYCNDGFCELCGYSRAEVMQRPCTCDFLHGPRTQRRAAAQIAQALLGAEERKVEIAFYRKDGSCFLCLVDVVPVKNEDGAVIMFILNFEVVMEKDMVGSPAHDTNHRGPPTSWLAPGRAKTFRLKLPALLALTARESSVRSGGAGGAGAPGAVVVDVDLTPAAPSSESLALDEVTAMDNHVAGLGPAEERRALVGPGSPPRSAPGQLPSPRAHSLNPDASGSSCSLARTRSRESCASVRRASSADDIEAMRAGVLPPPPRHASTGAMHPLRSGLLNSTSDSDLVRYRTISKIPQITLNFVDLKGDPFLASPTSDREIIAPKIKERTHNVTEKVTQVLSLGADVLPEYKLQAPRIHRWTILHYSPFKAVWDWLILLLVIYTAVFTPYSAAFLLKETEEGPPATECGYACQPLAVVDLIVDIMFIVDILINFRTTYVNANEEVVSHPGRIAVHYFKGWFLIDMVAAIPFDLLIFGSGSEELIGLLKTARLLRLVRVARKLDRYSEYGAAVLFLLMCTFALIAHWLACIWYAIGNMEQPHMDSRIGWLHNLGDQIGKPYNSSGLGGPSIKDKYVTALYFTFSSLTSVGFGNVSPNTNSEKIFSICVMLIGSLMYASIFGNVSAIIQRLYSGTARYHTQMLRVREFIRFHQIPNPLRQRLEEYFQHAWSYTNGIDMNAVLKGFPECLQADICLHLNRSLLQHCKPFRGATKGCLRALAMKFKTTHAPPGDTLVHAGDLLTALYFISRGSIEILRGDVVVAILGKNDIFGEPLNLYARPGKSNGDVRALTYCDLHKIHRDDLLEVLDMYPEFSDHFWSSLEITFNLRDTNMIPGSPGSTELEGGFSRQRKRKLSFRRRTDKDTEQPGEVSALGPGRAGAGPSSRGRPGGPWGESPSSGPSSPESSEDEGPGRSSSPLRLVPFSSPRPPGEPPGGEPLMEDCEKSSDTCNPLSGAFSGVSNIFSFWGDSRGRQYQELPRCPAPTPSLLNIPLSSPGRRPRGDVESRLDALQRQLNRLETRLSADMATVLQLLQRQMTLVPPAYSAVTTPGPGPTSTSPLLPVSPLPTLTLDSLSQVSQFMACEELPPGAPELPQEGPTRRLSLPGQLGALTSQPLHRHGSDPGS
smiles,measurement,setting,value
"Cl.Fc1cc(Nc2nc(-c3ccncc3)nc3ncccc23)cc2cc[nH]c12 [BC18813, N-(7-fluoro-1H-indol-5-yl)-2-pyridin-4-ylpyrido[2,3-d]pyrimidin-4-amine hydrochloride]",pIC50,[1],< 5.00
same,Emax,[1],4.86%
same,Emax,[2]; Blocker,12.9%
same,pIC50,[2]; Blocker,< 5.00
same,Emax,[2]; Opener,3.89%
same,pEC50,[2]; Opener,< 5.00
same,Emax,[3]; Agonist,24.4%
same,Emax,[3]; Antagonist,53.3%
same,pEC50,"[3]; cAMP, Agonist",< 5.00
same,Curve Bottom,"[3]; cAMP, Antagonist",-9.93
same,Curve Top,"[3]; cAMP, Antagonist",100
same,Hill,"[3]; cAMP, Antagonist",1.01
same,pIC50,"[3]; cAMP, Antagonist",5.13
same,Emax,[4]; Blocker,13.8%
same,pIC50,[4]; Blocker,< 5.00
same,Emax,[4]; Opener,0%
same,pEC50,[4]; Opener,< 5.00
same,Emax,[5],17.9%
same,pIC50,[5],< 5.00
same,Emax,[6]; Agonist,24.3%
same,pEC50,[6]; Agonist,< 5.00
same,Emax,[6]; Antagonist,0%
same,pIC50,[6]; Antagonist,< 5.00
same,Emax,[7]; Agonist,0%
same,pEC50,[7]; Agonist,< 5.00
same,Curve Bottom,[7]; Antagonist,0
same,Curve Top,[7]; Antagonist,100
same,Hill,[7]; Antagonist,1.19
same,Emax,[7]; Antagonist,50.1%
same,pIC50,[7]; Antagonist,5.02
same,Emax,[8]; Agonist,5.5%
same,pEC50,[8]; Agonist,< 5.00
same,Emax,[8]; Antagonist,2.32%
same,pIC50,[8]; Antagonist,< 5.00
same,Emax,[9]; Blocker,0%
same,pIC50,[9]; Blocker,< 5.00
same,Emax,[9]; Opener,0%
same,pEC50,[9]; Opener,< 5.00
same,Emax,[10]; Blocker,0%
same,pIC50,[10]; Blocker,< 5.00
same,Emax,[10]; Opener,0.03%
same,pEC50,[10]; Opener,< 5.00
same,Emax,[11]; Agonist,2.91%
same,pEC50,[11]; Agonist,< 5.00
same,Emax,[11]; Antagonist,31.3%
same,pIC50,[11]; Antagonist,< 5.00
"Cl.c1ccc2c(Nc3ccc4[nH]ccc4c3)nc(-c3ccncc3)nc2c1 [BC18630, N-1H-indol-5-yl-2-pyridin-4-ylquinazolin-4-amine hydrochloride]",pIC50,[1],< 5.00
same,Emax,[1],6.14%
same,Emax,[2]; Blocker,21.4%
same,pIC50,[2]; Blocker,< 5.00
same,Emax,[2]; Opener,6.18%
same,pEC50,[2]; Opener,< 5.00
same,Emax,[3]; Agonist,8.65%
same,Emax,[3]; Antagonist,49.4%
same,pEC50,"[3]; cAMP, Agonist",< 5.00
same,pIC50,"[3]; cAMP, Antagonist",< 5.00
same,Emax,[4]; Blocker,0%
same,pIC50,[4]; Blocker,< 5.00
same,Emax,[4]; Opener,0%
same,pEC50,[4]; Opener,< 5.00
same,Emax,[5],8.53%
same,pIC50,[5],< 5.00
same,Emax,[6]; Agonist,8.98%
same,pEC50,[6]; Agonist,< 5.00
same,Emax,[6]; Antagonist,1%
same,pIC50,[6]; Antagonist,< 5.00
same,Emax,[7]; Agonist,0%
same,pEC50,[7]; Agonist,< 5.00
same,Curve Bottom,[7]; Antagonist,0
same,Curve Top,[7]; Antagonist,100
same,Hill,[7]; Antagonist,1.45
same,Emax,[7]; Antagonist,55.1%
same,pIC50,[7]; Antagonist,5.07
same,Emax,[8]; Agonist,0%
same,pEC50,[8]; Agonist,< 5.00
same,Emax,[8]; Antagonist,3.72%
same,pIC50,[8]; Antagonist,< 5.00
same,Emax,[9]; Blocker,12.4%
same,pIC50,[9]; Blocker,< 5.00
same,Emax,[9]; Opener,0%
same,pEC50,[9]; Opener,< 5.00
same,Curve Bottom,[10]; Blocker,0
same,Curve Top,[10]; Blocker,100
same,Hill,[10]; Blocker,1.9
same,Emax,[10]; Blocker,69.9%
same,pIC50,[10]; Blocker,5.19
same,Emax,[10]; Opener,0%
same,pEC50,[10]; Opener,< 5.00
same,Emax,[11]; Agonist,5.41%
same,pEC50,[11]; Agonist,< 5.00
same,Emax,[11]; Antagonist,9.48%
same,pIC50,[11]; Antagonist,< 5.00
